Earlier results, collected in patent US20040258778A1, “Lactation cessation and breast engorgement compositions and method of use” (priority 2003, published 2004).

System: lactating women

CC(C)C[C@H]1C(=O)N2CCC[C@H]2[C@]2(O)O[C@](NC(=O)[C@@H]3C=C4c5cccc6[nH]c(Br)c(c56)C[C@H]4N(C)C3)(C(C)C)C(=O)N12 [bromocriptine]
rebound engorgement, share of the time (after a two-week course of treatment ends, according to the official labeling): up to 40% | very serious side effects reported (use to suppress lactation (Iffy, 1998)): strokes, seizures (convulsions), intracranial bleeding, cerebral edema, and heart attacks
